Tests used:
[1] = test system: CD22 surface expression in NALM6 cells; assay: CD22 surface expression in NALM6 cells (flow cytometry); format: cell-based, human; settings: NALM6 cells at 1 nM relative to DMSO control, 24 h incubation, washout, 24 h sub-culture, n = 3; for fold induction at 0.001 µM: Homo sapiens, NALM-6, 24 h, read-out: Fold increase CD22 expression
Procedure: CD22 Surface Expression Protocol – NALM6 Cells […]
unless otherwise noted below) at 37 ° C in an incubator (5% CO2). Cell cultures were maintained […]
Cell suspension from a confluent T75 flask (Fisher) was transferred to a 15 mL falcon tube and centrifuged at 1100 rpm for 7 minutes. The supernatant was aspirated, and the cell pellet was […]
Cells were counted using a Countess II Automated Cell
199 µL of this stock was added to 24 wells (enough for triplicate measurements for 8 different experimental conditions) in a 96-well plate. Dosing was […]
each experiment. 1 µL of DMSO or the appropriate stock solution of compound in DMSO was added to each well. Cells were incubated for 24 hours, at which point the cell suspensions were transferred to 1.5 mL Eppendorf tubes and diluted with 1.0 mL of PBS (Hyclone, without Ca2+ or Mg2+). Samples were centrifuged at 2000 rpm for 5 min at RT. The supernatant was aspirated, […]
Cells were sub-cultured between 2 […]
surface expression was assayed by flow cytometry.
Cells from one well were counted using a Countess II Automated Cell Counter (Fisher). ~200,000 – 300,000 cells from each well were added to 1.5 mL Eppendorf tubes containing PBS (final volume ~1.2 mL). The cell suspensions were centrifuged at 1500 rpm for 7 minutes at 4 °C. The supernatant was aspirated, and the cell pellet was resuspended in 99 µL of pre-chilled FACS […]
buffer (0.5% w/v BSA in PBS). […]
minutes. Samples were then diluted with an additional 1.0 mL of FACS buffer and centrifuged at 1500 rpm for 7 minutes at 4 °C. The supernatant was aspirated, the cell pellets were resuspended in 200 µL FACS buffer, and the resulting suspensions were transferred to FACS tubes (Fisher, […]
Cells were stained with DAPI and CD22 surface expression was analyzed using the FACScan Analyzer at the Stanford Shared FACS Facility. Data analysis was performed using FlowJo and Microsoft Excel.

PKCδ-GFP fusion protein = target: T1, PKCδ-GFP fusion protein (Homo sapiens, UniProt Q05655); assay: PKCδ-GFP translocation assay in living CHO-k1 cells (confocal microscopy); format: cell-based, Chinese hamster; settings: for Emax at 0.2 µM: CHO-K1, 200 nM compound; for Emax at 0.2 µM / Emax at 1 µM: read-out: % Translocation (maximum translocation of PKCδ-GFP to the plasma membrane); for minimum effective concentration required to induce translocation of PKC-GFP to the membrane: tested at 200 and 1000 nM; for PKC activation dynamics (shape of translocation curve): Fig. 5c, d; for Emax at 1 µM: CHO-K1, 1000 nM compound
T1 construct: expressed in transfected cells; host or cells: CHO-k1 (Chinese hamster ovary, ATCC)
T1 sequence (Q05655 whole entry, the tested form may be a part): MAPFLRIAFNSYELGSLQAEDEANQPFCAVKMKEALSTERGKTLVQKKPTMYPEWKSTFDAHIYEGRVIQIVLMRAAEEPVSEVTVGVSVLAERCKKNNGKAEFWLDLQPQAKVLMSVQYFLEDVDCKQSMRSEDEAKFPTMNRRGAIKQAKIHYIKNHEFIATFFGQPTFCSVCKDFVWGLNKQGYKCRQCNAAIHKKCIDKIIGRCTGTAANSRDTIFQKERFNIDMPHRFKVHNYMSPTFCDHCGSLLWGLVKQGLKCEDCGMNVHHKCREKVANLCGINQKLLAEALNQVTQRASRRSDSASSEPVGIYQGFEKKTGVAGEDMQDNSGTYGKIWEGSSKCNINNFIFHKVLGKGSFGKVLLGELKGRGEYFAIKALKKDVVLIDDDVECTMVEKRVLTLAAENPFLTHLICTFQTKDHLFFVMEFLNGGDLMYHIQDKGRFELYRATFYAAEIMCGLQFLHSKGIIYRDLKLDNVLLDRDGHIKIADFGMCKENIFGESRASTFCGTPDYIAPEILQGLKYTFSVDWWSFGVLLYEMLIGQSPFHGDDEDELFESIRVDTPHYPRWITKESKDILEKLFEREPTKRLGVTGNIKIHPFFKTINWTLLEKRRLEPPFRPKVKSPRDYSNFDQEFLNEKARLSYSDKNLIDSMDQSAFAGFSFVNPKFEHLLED
Procedure: With a panel of compounds bearing diverse functionality at C13, we began to explore how these modifications affect PKC binding and biological function. Because an obvious prerequisite for PKC pathway involvement is binding to PKC, compounds were initially evaluated for PKC affinity in a cell-free competitive binding assay with tritiated phorbol dibutyrate ([^3H]-PDBu). Assays were performed with representative members of both the conventional (PKCα) and novel (PKCδ) PKC families. Subsequently, compounds were assayed for PKC isoform translocation in real time in living cells using an optical assay. Translocation to the plasma membrane is the hallmark of PKC activation[18],[57],[60] and therefore monitoring the subcellular localization of a PKCδ-GFP fusion protein via confocal microscopy offers a convenient method for determining whether a compound enters a cell and engages its PKC isoform target. Finally and of clinical significance, we also determined the effect of compounds on CD22 surface expression in vitro in NALM6 cells, an ALL cell line previously studied in connection with CD22-targeted CAR T cell therapy, and two additional lymphoma cell lines[11],[31],[65].
Scale bar represents 25 μm. Experiments performed in n = 3 biological replicates. b–d Cytosolic fluorescence normalized to t = 0 (time immediately prior to addition of compound to media) and plotted against time. Error bars excluded for clarity (data presented as the mean of n = 3 biological replicates). Individual curves with error bars included in Supplementary Information.
PKCδ-GFP Translocation Assay Protocol
Chinese hamster ovary factor K1 (CHO-k1, ATCC) cells were cultured in F-12 Kaighn’s media (Hyclone, 10% fetal bovine serum, 1% penicillin/streptomycin added, reffered to as F-12 +/+ below) at 37 ° C in an incubator (5% CO2). Cell cultures were maintained by splitting cells 1:3 when they reached ~75-100% confluence (every 2-3 days) as follows:
(Gibco) was used to remove the cells from the culture flask (T75, Falcon). 1 mL of the cell suspension was then added to 9 mL of fresh F-12 +/+ and the sample was sub-cultured until reaching confluence (~2-3 days).
Cells were counted using a Countess II Automated Cell Counter (Fisher). The cell suspension was diluted to 240,000 cells/mL with fresh F-12 +/+ and 2.5 mL of this diluted stock was added to one well in a 6-well plate. The cells were then cultured for 24 hours.
Cells were transfected with Lipofectamine 2000 reagent (Invitrogen) or DA 13:11 at a 10:1 charge […]
F-12 +/+ was aspirated and cells were washed with F-12 -/-. 2 mL of fresh F-12 -/- was then added to each well, taking care not to disturb adherent cells. For each well of CHO-k1 cells, 12.5 µL Lipofectamine 2000 reagent (Invitrogen) was added to 250 µL Opti-MEM reduced serum media (Invitrogen) in a polypropylene tube and incubated for 20 minutes at RT. Meanwhile, for each well, 4 µg of PKCδ-GFP pDNA and 250 µL Opti-MEM reduced serum media was added to a separate polypropylene tube. 250 µL of the Lipofectamine 2000 suspension was added to the DNA suspension and the solution incubated for 30 minutes at RT. 500 µL of the Lipofectamine/DNA suspension was added to the respective wells of the 6-well plate. The cells were then incubated at 37 ° C (5% CO2) for ~24 hrs.
F-12 +/+ was aspirated and cells were washed with F-12 -/-. 2.4 mL of fresh F-12 -/- was then added to each well, taking care not to disturb adherent cells. A 4 µg aliquot of PKCδ-GFP pDNA was added to PBS (pH 5.5, final volume 100 µL). 5.6 µL of DA 13:11 (2 mM stock in DMSO) was then added to the DNA solution, and the mixture was gently mixed (by flicking) for 20 seconds, at which point it was added directly to the respective wells of the 6-well plate.

## CCCCCC#CC(=O)O[C@H]1/C(=C/C(=O)OC)C[C@H]2C[C@H]([C@@H](C)O)OC(=O)C[C@H](O)C[C@@H]3C[C@H](OC(C)=O)C(C)(C)[C@](O)(C[C@@H]4C[C@H](O)C[C@H](/C=C/C(C)(C)[C@]1(O)O2)O4)O3 [SUW204]
[1]
  fold induction at 0.001 µM: 0.98
PKCδ-GFP fusion protein; 200 nM, at 20 min
  cytosolic PKC translocated to the plasma membrane: ~ 25%
PKCδ-GFP fusion protein; CHO-k1 cells, n = 3
  Emax at 0.2 µM: 25%
PKCδ-GFP fusion protein; CHO-k1 cells
  minimum effective concentration required to induce translocation of PKC-GFP to the membrane: 200 nM

## CCC/C=C/C=C/C(=O)O[C@H]1/C(=C/C(=O)OC)C[C@H]2C[C@H]([C@@H](C)O)OC(=O)C[C@H](O)C[C@@H]3C[C@H](OC(C)=O)C(C)(C)[C@](O)(C[C@@H]4C[C@@H](OC(C)=O)C[C@H](/C=C/C(C)(C)[C@]1(O)O2)O4)O3 [SUW207]
[1]
  Fold increase CD22 expression: 1.33 fold
PKCδ-GFP fusion protein; CHO-k1 cells, n = 3
  Emax at 0.2 µM: 60%
PKCδ-GFP fusion protein; CHO-k1 cells
  minimum effective concentration required to induce translocation of PKC-GFP to the membrane: 200 nM

## CCCC=CC=CC(=O)OC1C(=CC(=O)OC)CC2CC(C(C)O)OC(=O)CC(O)CC3CC(OC(C)=O)C(C)(C)C(O)(CC4CC(OC(=O)Nc5ccccc5)CC(C=CC(C)(C)C1(O)O2)O4)O3 (stereo not shown) [SUW208]
[1]
  fold induction at 0.001 µM: 1.68
PKCδ-GFP fusion protein; 200 nM
  activity in the PKC translocation assay at 200 nM: effectively translocated PKC to the plasma membrane
  time required for translocation: ~ 15 min
PKCδ-GFP fusion protein; CHO-k1 cells, n = 3
  Emax at 0.2 µM: 75%
PKCδ-GFP fusion protein; CHO-k1 cells
  minimum effective concentration required to induce translocation of PKC-GFP to the membrane: 200 nM
PKCδ-GFP fusion protein
  PKC activation dynamics (shape of translocation curve): delayed activation patterns

## CCCC=CC=CC(=O)OC1C(=CC(=O)OC)CC2CC(C(C)O)OC(=O)CC(O)CC3CC(OC(C)=O)C(C)(C)C(O)(CC4CC(OC(=O)CC56CC7CC(CC(C7)C5)C6)CC(C=CC(C)(C)C1(O)O2)O4)O3 (stereo not shown) [SUW209]
[1]
  fold induction at 0.001 µM: 1.45
PKCδ-GFP fusion protein; 200 nM
  activity in the PKC translocation assay at 200 nM: inactive
PKCδ-GFP fusion protein; CHO-k1 cells, n = 3
  Emax at 1 µM: 60%
PKCδ-GFP fusion protein; CHO-k1 cells
  minimum effective concentration required to induce translocation of PKC-GFP to the membrane: 1000 nM

## CCCC=CC=CC(=O)OC1C(=CC(=O)OC)CC2CC(C(C)O)OC(=O)CC(O)CC3CC(OC(C)=O)C(C)(C)C(O)(CC4CC(OC(=O)CCc5c[nH]c6ccccc56)CC(C=CC(C)(C)C1(O)O2)O4)O3 (stereo not shown) [SUW210]
[1]
  fold induction at 0.001 µM: 1.49
PKCδ-GFP fusion protein; 200 nM
  activity in the PKC translocation assay at 200 nM: inactive
PKCδ-GFP fusion protein; CHO-k1 cells, n = 3
  Emax at 1 µM: 75%
PKCδ-GFP fusion protein; CHO-k1 cells
  minimum effective concentration required to induce translocation of PKC-GFP to the membrane: 1000 nM

## CCCC=CC=CC(=O)OC1C(=CC(=O)OC)CC2CC(C(C)O)OC(=O)CC(O)CC3CC(OC(C)=O)C(C)(C)C(O)(CC4CC(=CC(=O)OCC)CC(C=CC(C)(C)C1(O)O2)O4)O3 (stereo not shown) [SUW217]
[1]
  fold induction at 0.001 µM: 1.97
PKCδ-GFP fusion protein; CHO-k1 cells, n = 3
  Emax at 0.2 µM: 75%
PKCδ-GFP fusion protein; CHO-k1 cells
  minimum effective concentration required to induce translocation of PKC-GFP to the membrane: 200 nM

## CCCC=CC=CC(=O)OC1C(=CC(=O)OC)CC2CC(C(C)O)OC(=O)CC(O)CC3CC(OC(C)=O)C(C)(C)C(O)(CC4CC(=CC(=O)OCC)CC(C=CC(C)(C)C1(O)O2)O4)O3 (stereo not shown) [SUW218]
[1]
  Fold increase CD22 expression: 1.92 fold
PKCδ-GFP fusion protein; 200 nM compound, CHO-k1 cells, n = 3
  % Translocation (maximum translocation of PKCδ-GFP to the plasma membrane): 55%
PKCδ-GFP fusion protein; CHO-k1 cells
  minimum effective concentration required to induce translocation of PKC-GFP to the membrane: 200 nM
PKCδ-GFP fusion protein
  PKC activation dynamics (shape of translocation curve): more sustained linear activation dynamics
